Test results published in the NIST ThermoML archive (doi:10.1021/acs.jced.6b00178).

CCCCn1cc[n+](C)c1.O=S(=O)([O-])C(F)(F)F [1-butyl-3-methylimidazolium trifluoromethanesulfonate]
100 kPa
Settings | mass density [kg/m3] | viscosity [mPa·s]
283.15 K, Metastable liquid, Concentric cylinders viscometry | – | 225.61
283.15 K, Metastable liquid, Vibrating tube method | 1308.4 | –
288.15 K, Metastable liquid, Concentric cylinders viscometry | – | 168.05
288.15 K, Metastable liquid, Vibrating tube method | 1304.3 | –
293.15 K, Concentric cylinders viscometry, Liquid | – | 128.51
293.15 K, Vibrating tube method, Liquid | 1300.3 | –
298.15 K, Concentric cylinders viscometry, Liquid | – | 99.14
298.15 K, Vibrating tube method, Liquid | 1296.3 | –
303.15 K, Concentric cylinders viscometry, Liquid | – | 78.26
303.15 K, Vibrating tube method, Liquid | 1292.3 | –
308.15 K, Concentric cylinders viscometry, Liquid | – | 62.76
308.15 K, Vibrating tube method, Liquid | 1288.4 | –
313.15 K, Concentric cylinders viscometry, Liquid | – | 51.33
313.15 K, Vibrating tube method, Liquid | 1284.5 | –
318.15 K, Concentric cylinders viscometry, Liquid | – | 42.1
318.15 K, Vibrating tube method, Liquid | 1280.6 | –
323.15 K, Concentric cylinders viscometry, Liquid | – | 35.13
323.15 K, Vibrating tube method, Liquid | 1276.7 | –
328.15 K, Concentric cylinders viscometry, Liquid | – | 29.63
328.15 K, Vibrating tube method, Liquid | 1272.8 | –
333.15 K, Concentric cylinders viscometry, Liquid | – | 25.5
333.15 K, Vibrating tube method, Liquid | 1268.9 | –
338.15 K, Concentric cylinders viscometry, Liquid | – | 21.72
338.15 K, Vibrating tube method, Liquid | 1265.1 | –
343.15 K, Concentric cylinders viscometry, Liquid | – | 18.84
343.15 K, Vibrating tube method, Liquid | 1261.3 | –
348.15 K, Concentric cylinders viscometry, Liquid | – | 16.47
348.15 K, Vibrating tube method, Liquid | 1257.5 | –
353.15 K, Concentric cylinders viscometry, Liquid | – | 14.83
353.15 K, Vibrating tube method, Liquid | 1253.7 | –
358.15 K, Concentric cylinders viscometry, Liquid | – | 12.86
358.15 K, Vibrating tube method, Liquid | 1249.9 | –
363.15 K, Concentric cylinders viscometry, Liquid | – | 11.48
363.15 K, Vibrating tube method, Liquid | 1246.2 | –

CCCCn1cc[n+](C)c1.F[P-](F)(F)(F)(F)F [1-butyl-3-methylimidazolium hexafluorophosphate]
100 kPa
Settings | mass density [kg/m3] | viscosity [mPa·s]
283.15 K, Metastable liquid, Concentric cylinders viscometry | – | 794.33
283.15 K, Metastable liquid, Vibrating tube method | 1379.9 | –
288.15 K, Concentric cylinders viscometry, Liquid | – | 557.27
288.15 K, Vibrating tube method, Liquid | 1376.5 | –
293.15 K, Concentric cylinders viscometry, Liquid | – | 393.86
293.15 K, Vibrating tube method, Liquid | 1372 | –
298.15 K, Concentric cylinders viscometry, Liquid | – | 285.02
298.15 K, Vibrating tube method, Liquid | 1367.6 | –
303.15 K, Concentric cylinders viscometry, Liquid | – | 210.93
303.15 K, Vibrating tube method, Liquid | 1363.4 | –
308.15 K, Concentric cylinders viscometry, Liquid | – | 159.46
308.15 K, Vibrating tube method, Liquid | 1359.2 | –
313.15 K, Concentric cylinders viscometry, Liquid | – | 122.78
313.15 K, Vibrating tube method, Liquid | 1355.1 | –
318.15 K, Concentric cylinders viscometry, Liquid | – | 96.28
318.15 K, Vibrating tube method, Liquid | 1351 | –
323.15 K, Concentric cylinders viscometry, Liquid | – | 76.72
323.15 K, Vibrating tube method, Liquid | 1347 | –
328.15 K, Concentric cylinders viscometry, Liquid | – | 62.04
328.15 K, Vibrating tube method, Liquid | 1342.9 | –
333.15 K, Concentric cylinders viscometry, Liquid | – | 50.85
333.15 K, Vibrating tube method, Liquid | 1338.9 | –
338.15 K, Concentric cylinders viscometry, Liquid | – | 42.2
338.15 K, Vibrating tube method, Liquid | 1334.9 | –
343.15 K, Concentric cylinders viscometry, Liquid | – | 35.43
343.15 K, Vibrating tube method, Liquid | 1330.9 | –
348.15 K, Concentric cylinders viscometry, Liquid | – | 30.04
348.15 K, Vibrating tube method, Liquid | 1326.9 | –
353.15 K, Concentric cylinders viscometry, Liquid | – | 25.72
353.15 K, Vibrating tube method, Liquid | 1323 | –
358.15 K, Concentric cylinders viscometry, Liquid | – | 22.22
358.15 K, Vibrating tube method, Liquid | 1319 | –
363.15 K, Concentric cylinders viscometry, Liquid | – | 19.36
363.15 K, Vibrating tube method, Liquid | 1315.2 | –

CCCCn1cc[n+](C)c1.N#C[S-] [1-butyl-3-methylimidazolium thiocyanate]
100 kPa, Liquid
Settings | mass density, Vibrating tube method [kg/m3] | viscosity, Concentric cylinders viscometry [mPa·s]
283.15 K | 1079.2 | 139.54
288.15 K | 1076.2 | 104.51
293.15 K | 1073.2 | 82.91
298.15 K | 1070.2 | 62.63
303.15 K | 1067.2 | 49.94
308.15 K | 1064.2 | 40.48
313.15 K | 1061.3 | 34.08
318.15 K | 1058.4 | 27.8
323.15 K | 1055.5 | 23.49
328.15 K | 1052.6 | 20.06
333.15 K | 1049.8 | 17.58
338.15 K | 1047 | 15.08
343.15 K | 1044.1 | 13.24
348.15 K | 1041.4 | 11.71
353.15 K | 1038.6 | 10.67
358.15 K | 1035.8 | 9.355
363.15 K | 1033.1 | 8.436
